# Experimental data reported in patent US20050119179A1, “Inositol 1, 4, 5-triphosphate receptor (type 1), phosphorylation and modulation by CDC2” (priority 2003, published 2005).
# pKd: −log10 of the molar value.
# Legend:
# IP3 receptor = IP3 receptor function in wild type and phosphorylation deficient mutant DT40 cells before and after activation; assay type: cell-based; conditions: phosphorylation deficient mutant, FIG. 6
# Protocol: The compounds were tested on wild type DT40 cells. The phosphorylation deficient cells were generated by transfecting phosphorylation deficient IP3R mutant cDNAs into triple IP3R deficient DT40 cells. These cells express mutant IP3R with Ser421 and Thr799 replaced by alanine residues. The remaining portion of the receptor is the same as native IP3R.
# [1] = tested on: IP3R1 phosphorylation at Ser421 and Thr799 in DT40 cells; experiment: IP3R1 phosphorylation in DT40 cells, immunoblot with αSer421 and αThr799; assay type: cell-based; conditions: 1 μM nocodazole, 16 h, serum-starved DT40 cells, compared to control cells
# Protocol: FIG. 4 IP3R1 phosphorylation at Ser421 and Thr799 occurs in vivo. DT40 cells were serum-starved for 24 h and cultured with and without 1 μM nocodazole (control) for 16 h in RPMI-1640 medium containing 10% FBS. After 16 h in culture, cells were washed two times with PBS, and cell lysates were resolved on 6% SDS-PAGE gels and immunoblotted with αSer^421 (A), αThr^799 (B) or αIP3R1 (C).
# Cells were equalized for number and lysed in ice-cold lysis buffer containing 0.5% Nonidet P-40, 25 mM HEPES, pH 7.4, 150 mM NaCl, 1 mM EDTA, 1 mM sodium orthovanadate and protease inhibitors. Cell lysates were centrifuged at 13,000× g in a microcentrifuge, and the supernatants were subjected to immunoblotting and immunoprecipitation (Frangioni and Neal 1993; Matter, et al., 1993). The membranes were blocked in TBST (20 mM Tris/HCl, pH 7.4, 0.9% NaCl, and 0.05% Tween 20) containing 5% nonfat dried milk for 1 hr followed by incubation with primary antibodies. After extensive washings, the membranes were incubated with secondary antibody conjugated to horseradish peroxidase (goat anti-rabbit IgG; Pharmingen, Calif.) in TBST containing 5% nonfat dried milk. The immunoblots were analyzed using an ECL detection system (Amersham, Piscataway, N.J.). […] Phosphoproteins were separated by SDS-PAGE and detected by autoradiography as described (Frangioni and Neal 1993; Means 1994). […]
# [2] = tested on: syncytial cell death induced by HIV infection; conditions: inhibition of cdc2 activity; cited from earlier work
# native cerebellar IP3R = molecular target: T1, native cerebellar IP3R (Mus musculus, UniProt P11881); conditions: read-out: affinity for IP3; cited from earlier work
# T1 construct: host or cells: cerebellum
# T1 sequence (P11881 whole entry): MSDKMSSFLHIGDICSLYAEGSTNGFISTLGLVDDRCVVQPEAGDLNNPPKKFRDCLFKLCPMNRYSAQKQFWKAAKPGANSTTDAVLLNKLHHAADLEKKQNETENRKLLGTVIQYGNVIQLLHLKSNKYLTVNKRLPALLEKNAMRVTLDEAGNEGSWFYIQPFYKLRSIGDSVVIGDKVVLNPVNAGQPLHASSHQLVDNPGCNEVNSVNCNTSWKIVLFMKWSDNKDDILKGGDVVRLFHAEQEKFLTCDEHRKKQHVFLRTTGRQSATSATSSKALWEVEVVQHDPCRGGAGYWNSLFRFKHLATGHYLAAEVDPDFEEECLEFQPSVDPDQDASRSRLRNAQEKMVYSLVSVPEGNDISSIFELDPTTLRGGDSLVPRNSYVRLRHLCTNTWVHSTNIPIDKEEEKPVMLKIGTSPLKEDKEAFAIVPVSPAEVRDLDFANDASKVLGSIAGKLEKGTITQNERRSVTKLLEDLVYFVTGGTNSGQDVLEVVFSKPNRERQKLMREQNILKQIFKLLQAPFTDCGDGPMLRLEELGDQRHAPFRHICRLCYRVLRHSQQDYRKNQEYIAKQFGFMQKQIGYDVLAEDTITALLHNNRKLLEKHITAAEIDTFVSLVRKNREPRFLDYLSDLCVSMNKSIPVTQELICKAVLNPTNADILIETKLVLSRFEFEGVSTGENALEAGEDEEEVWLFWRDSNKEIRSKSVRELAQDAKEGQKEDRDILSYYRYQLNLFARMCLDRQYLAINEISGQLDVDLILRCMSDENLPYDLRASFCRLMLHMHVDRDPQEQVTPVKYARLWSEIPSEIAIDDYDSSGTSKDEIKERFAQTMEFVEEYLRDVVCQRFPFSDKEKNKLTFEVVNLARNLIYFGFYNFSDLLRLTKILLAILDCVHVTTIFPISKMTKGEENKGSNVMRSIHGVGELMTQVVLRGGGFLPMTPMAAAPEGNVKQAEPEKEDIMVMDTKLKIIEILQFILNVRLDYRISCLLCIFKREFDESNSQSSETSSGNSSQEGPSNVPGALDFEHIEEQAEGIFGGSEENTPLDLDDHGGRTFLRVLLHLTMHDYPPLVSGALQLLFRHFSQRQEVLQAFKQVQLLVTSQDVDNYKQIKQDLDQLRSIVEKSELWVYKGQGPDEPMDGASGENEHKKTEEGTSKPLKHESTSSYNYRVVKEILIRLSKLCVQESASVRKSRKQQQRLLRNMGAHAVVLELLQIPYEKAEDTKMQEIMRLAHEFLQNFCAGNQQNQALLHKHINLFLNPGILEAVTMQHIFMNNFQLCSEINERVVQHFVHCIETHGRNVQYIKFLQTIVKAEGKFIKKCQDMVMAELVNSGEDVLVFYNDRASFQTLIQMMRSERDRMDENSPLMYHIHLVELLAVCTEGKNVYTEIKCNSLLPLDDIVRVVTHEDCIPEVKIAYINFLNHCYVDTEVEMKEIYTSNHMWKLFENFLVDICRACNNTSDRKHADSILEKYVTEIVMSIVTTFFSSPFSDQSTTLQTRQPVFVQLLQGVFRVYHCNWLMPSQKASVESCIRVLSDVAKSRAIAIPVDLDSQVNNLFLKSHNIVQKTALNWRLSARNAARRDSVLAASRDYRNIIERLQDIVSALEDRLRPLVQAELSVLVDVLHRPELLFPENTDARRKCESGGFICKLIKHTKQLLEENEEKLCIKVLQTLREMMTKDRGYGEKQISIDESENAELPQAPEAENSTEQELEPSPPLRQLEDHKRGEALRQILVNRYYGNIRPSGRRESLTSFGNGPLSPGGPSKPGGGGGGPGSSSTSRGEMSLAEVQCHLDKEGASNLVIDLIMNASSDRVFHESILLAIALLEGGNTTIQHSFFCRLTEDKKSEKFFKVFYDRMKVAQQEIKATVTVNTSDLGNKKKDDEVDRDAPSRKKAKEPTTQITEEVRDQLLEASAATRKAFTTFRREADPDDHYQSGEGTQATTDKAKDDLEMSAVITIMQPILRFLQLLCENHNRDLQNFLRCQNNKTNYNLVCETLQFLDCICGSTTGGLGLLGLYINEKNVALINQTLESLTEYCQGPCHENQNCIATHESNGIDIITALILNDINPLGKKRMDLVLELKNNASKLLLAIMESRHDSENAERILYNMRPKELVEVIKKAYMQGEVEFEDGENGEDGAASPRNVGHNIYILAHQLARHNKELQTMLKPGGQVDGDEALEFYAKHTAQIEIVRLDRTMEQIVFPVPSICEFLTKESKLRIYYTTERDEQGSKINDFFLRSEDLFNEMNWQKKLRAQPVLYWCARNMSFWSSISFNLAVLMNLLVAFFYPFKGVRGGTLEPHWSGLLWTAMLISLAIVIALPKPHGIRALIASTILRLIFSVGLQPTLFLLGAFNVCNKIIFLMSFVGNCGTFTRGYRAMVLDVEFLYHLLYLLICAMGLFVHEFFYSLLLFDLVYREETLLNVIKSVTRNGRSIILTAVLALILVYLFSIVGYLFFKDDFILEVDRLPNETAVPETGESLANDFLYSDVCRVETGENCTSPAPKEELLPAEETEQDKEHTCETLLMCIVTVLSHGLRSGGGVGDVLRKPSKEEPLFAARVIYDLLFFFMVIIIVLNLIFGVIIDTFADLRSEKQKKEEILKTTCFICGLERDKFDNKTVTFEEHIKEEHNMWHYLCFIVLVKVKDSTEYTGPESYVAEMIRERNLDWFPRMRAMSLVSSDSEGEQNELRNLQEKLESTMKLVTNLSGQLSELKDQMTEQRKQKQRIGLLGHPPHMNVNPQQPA
compound,measurement,setting,value
Xestospongin,IP3 receptor function,IP3 receptor,affect IP3 receptor function
NCCOB(c1ccccc1)c1ccccc1 [2-APB],IP3 receptor function,IP3 receptor,affect IP3 receptor function
"COC(=O)Nc1nc2ccc(C(=O)c3cccs3)cc2[nH]1 [Nocodazole, nocodazole]",IP3R1 phosphorylation at both Ser421 and Thr799,[1],greatly enhanced IP3R1 phosphorylation
CC[C@H](CO)Nc1nc(NCc2ccccc2)c2ncn(C(C)C)c2n1 [roscovitine],syncytial cell death induced by HIV infection,[2],prevented syncytial cell death
"O=P(O)(O)O[C@@H]1[C@H](O)[C@H](O)[C@@H](OP(=O)(O)O)[C@H](OP(=O)(O)O)[C@H]1O [IP3, inositol 1,4,5-trisphosphate]",pKd,native cerebellar IP3R,7.08
